How the values were obtained:
[1] = parameters: method as in PMID 9873685, PMID 18355003; settings: pH 10; cited from earlier work
Nsp15 = Nsp15 (Severe acute respiratory syndrome coronavirus 2, UniProt P0DTD1); settings: 1 mM ZnCl2, negative control wells
Description: Small molecules from a 1000-member fragment screen library (Maybridge) were transferred to the wells of 384-well plates using an Echo 550 liquid handler. Nsp15 protein in 1 × Nsp15 buffer (50 mM KCl, 20 mM HEPES pH 7.4, 5 mM MnCl2, 0.003% (v/v) Tween20) was then added using a CERTUS Flex liquid handler. After mixing, the Aurora Nsp15 sensor (in 1 × Nsp15 buffer) was added using a CERTUS Flex liquid handler. Reactions were mixed again. Final concentrations were 25 μM Aurora Nsp15 sensor, 400 nM Nsp15 protein, 1 × Nsp15 buffer (50 mM KCl, 20 mM HEPES pH 7.4 and 5 mM MnCl2), 0.003% (v/v) Tween20, and 200 μM small molecule from the fragment screen library in a volume of 20 μl. […] The reaction mixture was incubated at room temperature for 4 h, and fluorescence was measured using a Tecan Spark plate reader. Fluorescence was measured in a black flat bottom 384-well plate (Corning).
The average value of this background was subtracted from the fluorescence values obtained from all other wells. […] Activity of Nsp15 in the presence of small molecules from the fragment screen library was calculated relative to this positive control value. Z-factors ([22]) were calculated for each 384-well plate to determine the quality of the screen. […]

Row | SMILES | Brightness (ϵ × Φ) [1] | Extinction coefficient (ϵ) [1] | Maximum emission wavelength (λem) [1] | Maximum excitation wavelength (λmax) [1] | Quantum yield (Φ) [1] | inhibition of Nsp15 (Nsp15)
1 | Cc1cc(=O)oc2cc(O)ccc12 [4-MU] | 10 710 M^−1 cm^−1 | 17 000 M^−1 cm^−1 | 450 nm | 360 nm | 0.63 | –
2 | [Cl-].[Cl-].[Zn+2] [ZnCl2] | – | – | – | – | – | inhibited Nsp15
